Assay results from ChEMBL document CHEMBL1201862, “PubChem BioAssay data set” (2004).
Values joined by “and” are separate entries in the source; they are usually repeats but may differ in a detail not shown here. Equal entries are not always repeated.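 Step 1: Grow cells in 96-well plates. Step 2: Expose to compound for 48 hours at 5 concentrations. Step 3: Interpolate endpoints linearly; if unreached, use highest concentration. GI50 = concentration required for 50% inhibition of growth.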 Active and inactive are the calls of the source. Cut-off read from the data, not from the text of the source: active = GI50 up to about 1.1 µM and inactive = higher.

How the values were obtained:
Experiment in all cases: DTP human tumour cell line panel, 48 h
[1] = system: ACHN
[2] = system: BT-549
[3] = system: CAKI-1
[4] = system: HCC 2998
[5] = system: HCT-116
[6] = system: HCT-15
[7] = system: IGROV-1
[8] = system: M14
[9] = system: MCF7
[10] = system: MDA-MB-435
[11] = system: NCI-H23
[12] = system: NCI-H522
[13] = system: NCI/ADR-RES
[14] = system: RPMI-8226
[15] = system: RXF 393
[16] = system: SK-MEL-2
[17] = system: SN12C
[18] = system: UO-31
[19] = system: MDA-MB-231

COC(=O)c1ccccc1/C=C1\Cc2c(C)c3c(c(C)c2C1=O)CCC3
GI50 [1]: > 100 µM (inactive) | GI50 [2]: > 100 µM (inactive) | GI50 [3]: > 100 µM (inactive) | GI50 [4]: > 100 µM (inactive) | GI50 [5]: > 100 µM (inactive) | GI50 [6]: > 100 µM | GI50 [7]: > 100 µM (inactive) | GI50 [8]: > 100 µM (inactive) | GI50 [9]: > 100 µM (inactive) | GI50 [10]: > 100 µM (inactive) | GI50 [11]: > 100 µM (inactive) | GI50 [12]: > 100 µM (inactive) | GI50 [13]: > 100 µM (inactive) | GI50 [14]: > 100 µM (inactive) | GI50 [15]: > 100 µM (inactive) | GI50 [16]: 6.27 µM (inactive) | GI50 [17]: > 100 µM (inactive) | GI50 [18]: > 100 µM (inactive)

CC1OC(OC2C(OC(=O)[C@]34CCC(C)(C)C[C@H]3C3=CC[C@@H]5[C@@]6(C)CC[C@H](OC7OC(C(=O)O)C(O)C(O)C7O)C(C)(C)[C@@H]6CC[C@@]5(C)[C@]3(C)C[C@H]4O)OCC(O)C2O)C(O)C(O)C1OC1OCC(O)C(O)C1O (some centres not stated)
GI50 [1]: 9.35 µM (inactive) | GI50 [2]: 12.2 µM (inactive) and 13.5 µM (inactive) | GI50 [3]: 12.7 µM (inactive) and 7.74 µM (inactive) | GI50 [5]: 14.1 µM (inactive) and 9.89 µM (inactive) | GI50 [6]: 17.1 µM and 17.3 µM | GI50 [7]: 15.2 µM (inactive) and 13 µM (inactive) | GI50 [8]: 13.7 µM (inactive) and 8.59 µM (inactive) | GI50 [11]: 5.31 µM (inactive) and 6.5 µM (inactive) | GI50 [12]: 10.2 µM (inactive) and 6.21 µM (inactive) | GI50 [14]: 12.1 µM (inactive) and 16.8 µM (inactive) | GI50 [15]: 15.7 µM (inactive) and 18.5 µM (inactive) | GI50 [17]: 2.38 µM (inactive) and 4.59 µM (inactive) | GI50 [18]: 7.29 µM (inactive) and 11.6 µM (inactive)

COC(=O)C(Cc1ccccc1)NP(=O)(O)OCC1OC(n2cc(I)c(=O)[nH]c2=O)CC1O (configuration not stated)
GI50 [1]: > 100 µM (inactive) | GI50 [2]: > 100 µM (inactive) | GI50 [3]: > 100 µM (inactive) | GI50 [5]: > 100 µM (inactive) | GI50 [6]: > 100 µM | GI50 [7]: > 100 µM (inactive) | GI50 [8]: > 100 µM (inactive) | GI50 [9]: > 100 µM (inactive) | GI50 [19]: > 100 µM (inactive) | GI50 [10]: > 100 µM (inactive) | GI50 [11]: > 100 µM (inactive) | GI50 [12]: > 100 µM (inactive) | GI50 [13]: > 100 µM (inactive) | GI50 [14]: > 100 µM (inactive) | GI50 [17]: > 100 µM (inactive) | GI50 [18]: > 100 µM (inactive)

COc1ccc(C(=O)N/N=C2\C(=O)c3c(C)cc(C)cc3CC2(C)C)cc1
GI50 [1]: 24.1 µM (inactive) | GI50 [2]: 18.6 µM (inactive) | GI50 [3]: 36 µM (inactive) | GI50 [5]: 17.1 µM (inactive) | GI50 [6]: 22.8 µM | GI50 [7]: 16.1 µM (inactive) | GI50 [8]: 19.8 µM (inactive) | GI50 [9]: 16.6 µM (inactive) | GI50 [19]: 19.7 µM (inactive) | GI50 [10]: 17.9 µM (inactive) | GI50 [11]: 29.5 µM (inactive) | GI50 [12]: 15.3 µM (inactive) | GI50 [13]: 22 µM (inactive) | GI50 [14]: 17.1 µM (inactive) | GI50 [15]: 16.6 µM (inactive) | GI50 [16]: 18.9 µM (inactive) | GI50 [17]: 18.4 µM (inactive)

Cc1ccc(S(=O)(=O)NC(=O)Nc2ccc(S(N)(=O)=O)cc2S(N)(=O)=O)cc1
GI50 [2]: > 100 µM (inactive) | GI50 [3]: > 100 µM (inactive) | GI50 [5]: > 100 µM (inactive) | GI50 [6]: > 100 µM | GI50 [7]: > 100 µM (inactive) | GI50 [8]: > 100 µM (inactive) | GI50 [9]: > 100 µM (inactive) | GI50 [19]: > 100 µM (inactive) | GI50 [10]: > 100 µM (inactive) | GI50 [11]: > 100 µM (inactive) | GI50 [12]: > 100 µM (inactive) | GI50 [13]: > 100 µM (inactive) | GI50 [14]: > 100 µM (inactive) | GI50 [15]: > 100 µM (inactive) | GI50 [16]: > 100 µM (inactive) | GI50 [17]: > 100 µM (inactive) | GI50 [18]: > 100 µM (inactive)

Cc1ccc2nc3n(c2c1)C(c1c(F)cccc1F)SC3 (configuration not stated)
GI50 [1]: > 100 µM (inactive) | GI50 [2]: > 100 µM (inactive) | GI50 [3]: 19.1 µM (inactive) | GI50 [4]: > 100 µM (inactive) | GI50 [5]: > 100 µM (inactive) | GI50 [6]: > 100 µM | GI50 [7]: > 100 µM (inactive) | GI50 [8]: > 100 µM (inactive) | GI50 [9]: 47.1 µM (inactive) | GI50 [19]: > 100 µM (inactive) | GI50 [11]: > 100 µM (inactive) | GI50 [12]: 55.5 µM (inactive) | GI50 [13]: > 100 µM (inactive) | GI50 [14]: > 100 µM (inactive) | GI50 [15]: > 100 µM (inactive) | GI50 [16]: > 100 µM (inactive) | GI50 [17]: > 100 µM (inactive) | GI50 [18]: > 100 µM (inactive)

Cc1cc(OC(=O)Nc2ccc(Cl)cc2)ccc1C(=S)Nc1ccccc1
GI50 [1]: 18.7 µM (inactive) | GI50 [2]: 91.8 µM (inactive) | GI50 [3]: 31.8 µM (inactive) | GI50 [4]: 26.3 µM (inactive) | GI50 [5]: 28.6 µM (inactive) | GI50 [6]: 68.1 µM | GI50 [7]: > 100 µM (inactive) | GI50 [8]: 12.6 µM (inactive) | GI50 [9]: 34.9 µM (inactive) | GI50 [10]: 54 µM (inactive) | GI50 [12]: 21.6 µM (inactive) | GI50 [13]: 48.1 µM (inactive) | GI50 [14]: > 100 µM (inactive) | GI50 [16]: 66.2 µM (inactive) | GI50 [17]: > 100 µM (inactive) | GI50 [18]: 73.5 µM (inactive)

COc1ccc2c(c1)O[C@@H]1C(O)Oc3cc(OC)c(OC)cc3[C@]1(O)C2=O (some centres not stated)
GI50 [1]: > 100 µM (inactive) | GI50 [2]: 12.6 µM (inactive) | GI50 [3]: > 100 µM (inactive) | GI50 [5]: 86.3 µM (inactive) | GI50 [6]: > 100 µM | GI50 [7]: > 100 µM (inactive) | GI50 [8]: > 100 µM (inactive) | GI50 [9]: 55.1 µM (inactive) | GI50 [19]: 72.3 µM (inactive) | GI50 [10]: 50.8 µM (inactive) | GI50 [11]: 3.44 µM (inactive) | GI50 [12]: 5.33 µM (inactive) | GI50 [13]: 30.4 µM (inactive) | GI50 [14]: 44.8 µM (inactive) | GI50 [15]: > 100 µM (inactive) | GI50 [16]: > 100 µM (inactive) | GI50 [17]: > 100 µM (inactive)
